Data on 1 compound can be found in patent US5015629A, “Tissue repair” (University of Southern California, priority 1990, dated 1991).

This test has as its system bovine endothelial cells. It counts as cell-based. The protocol:
In a second example, the effects of angiotensin II on proliferation (mitogenesis) and directional migration (chemotaxis) of endothelial cells were determined. In this regard, it is important to consider that tissue repair requires proper neovascularization, and that new blood vessel growth for wound repair requires endothelial cell replication, migration and orientation. Wound healing factors must be able to stimulate chemotaxis and cell proliferation in addition to initiating new blood vessel growth. The proliferation (mitogenesis) and the directional orientation of such cells (chemotaxis) was studied in vitro using bovine aortal endothelial cells. […] Background radioactivity (noncell-associated) was assessed by removing some filters immediately after the addition of cells prior to cellular migration, and processing these control filters the same way as the test filters. […] The latter was calculated by the following formula: [formula] where R equals the radioactivity in cpm associated with each test filter, B equals the cpm obtained from the background filters, T equals the cpm obtained from a volume (V) of cells in suspension at a known concentration (C) and S equals the cpm obtained from the cell supernate (noncellular, or unbound radioactivity). […]

Regarding `CC[C@H](C)[C@H](NC(=O)[C@H](Cc1ccc(O)cc1)NC(=O)[C@@H](NC(=O)[C@H](CCCNC(=N)N)NC(=O)[C@@H](N)CC(=O)O)C(C)C)C(=O)N[C@@H](Cc1c[nH]cn1)C(=O)N1CCC[C@H]1C(=O)N[C@@H](Cc1ccccc1)C(=O)O` [angiotensin II], the ED50 of chemotaxis was 3 nanogram/ml.
